Data set [1] addresses T1, rabbit skeletal muscle myosin S1 (SkS1) (Oryctolagus cuniculus, UniProt Q28641).
T1 construct: SkS1 (rabbit skeletal S1 fragment); from tissue; host or cells: rabbit skeletal muscle
Description: Steady state MgATPase, NADH-coupled assay, SkS1. Type of data set: biochemical. The procedure: MgATPase activities of 500 nM (for basal ATPase) or 50 nM (for actin activated ATPase) SkS1 (rabbit skeletal S1 fragment) 23 and 1 μM (for basal ATPase) or 300 nM (for actin activated ATPase) DdMD were measured at increasing concentrations of neurelaxin-A in the absence or in the presence of 45 μM actin for SkS1 or 15 μM actin for DdMD. Measurements were carried out using a pyruvate kinase/lactate dehydrogenase coupled assay (NADH-coupled assay) (Kovacs M. et al., J. Biol. Chem. 2004, 279 (34), pp 35557-35563) at 25° C. or 20° C. in case of SkS1 or DdMD, respectively. Myosin and actin together with the indicated concentration of the inhibitor were pre-incubated for 5 minutes at room temperature and the measurements were initiated with 1 mM ATP. Data were corrected for background ATPase activity of actin. G-actin was prepared accordingly from rabbit skeletal muscle (Spudich, J. A. & Watt, S.; The Journal of Biological Chemistry 246, 1971, pp 4866-4871) and polymerized by 2 mM MgCl2 for 1 hour at room temperature. Measurements were performed in low salt buffer containing 5 mM HEPES, 2 mM MgCl2, 0.1 mM EGTA and 2 mM DTT at pH 7.2 or assay buffer containing 20 mM HEPES, 40 mM NaCl, 4 mM MgCl2 at pH 7.3 for basal ATPase activity measurements with DdMD.
The basal and actin activated ATPase activities of rabbit skeletal muscle myosin S1 (SkS1) and Dictyostelium discoideum myosin 2 motor domain (DdMD) were measured at increasing concentrations of neurelaxin-A (FIGS. 3A and 3B).

Data set [2] concerns zebrafish skeletal muscle. Description: Zebrafish fast escape response (C-start), maximal angular velocity. Type of data set: in vivo, zebrafish (Danio rerio). The following applies: 6 dpf zebrafish. The procedure:
(§1) For the fast escape response experiments, 6 dpf larvae were placed in 50 μl drops on a plastic plate. They were treated with 0, 2, 5, 10 or 20 μM of neurelaxin-A. To evoke C-start response, acoustic stimuli were applied according to the following protocol: 10 taps were carried out with 1 minute intervals every hour for 4 hours. The force of tapping was standardized. Images were recorded with Ximea Camera (MQ003MG-CM) at 500 fps for 2 s. Data were analyzed by Flote software version 2.1 and maximal angular velocity parameters of C-start reflex were quantified. For the experiments investigating the effect of the inhibitor on the heart muscle of zebrafish, 6 dpf larvae were embedded in 1% agarose and kept in E3 in the presence of 20 μM neurelaxin-A. Videos were taken by a camera at 15.1 fps before and after inhibitor treatment every hour for 3 hours.
Transgenic Tg(−8.0cldnb:lynEGFP)^zf106 (cldnb:gfp) (Haas, P. & Gilmour, D., Developmental Cell 10, 2006, pp 673-680) zebrafish (Danio rerio) were maintained in the animal facility of Eötvös Loránd University. […]
The relative rate of in vivo skeletal muscle contraction was quantified based on the velocity of the rotating heads of the animals have been quantified (maximal angular velocity) in the absence and in the presence of neurelaxin-A (2 μM), monitored for 4 hours.

In data set [3] the test system is zebrafish heart muscle. Put plainly: Zebrafish heart rate and amplitude of heart muscle contraction. To be noted: 20 μM, within three hours, 6 dpf zebrafish. Format: in vivo, zebrafish (Danio rerio). Here is the method: as §1
Transgenic Tg(−8.0cldnb:lynEGFP)^zf106 (cldnb:gfp) (Haas, P. & Gilmour, D., Developmental Cell 10, 2006, pp 673-680) zebrafish (Danio rerio) were maintained in the animal facility of Eötvös Loránd University. For the experiments investigating the skeletal and heart muscle of zebrafish, 6 dpf embryos were used. […]
Heart beating and the amplitude of heart muscle contraction were monitored before and after the addition of 20 μM of neurelaxin-A to the zebrafish, imaging the same embryos every hour for three hours.

The subject of data set [4] is zebrafish embryos. Description: Zebrafish embryo toxicity test. Type of data set: in vivo, zebrafish (Danio rerio). The procedure: Transgenic Tg(−8.0cldnb:lynEGFP)^zf106 (cldnb:gfp) (Haas, P. & Gilmour, D., Developmental Cell 10, 2006, pp 673-680) zebrafish (Danio rerio) were maintained in the animal facility of Eötvös Loránd University. For the experiments investigating the skeletal and heart muscle of zebrafish, 6 dpf embryos were used. For cytotoxicity assays, 2 dpf embryos were dechorionated and placed in E3 medium (5 mM NaCl, 0.33 mM MgCl2, 0.33 mM CaCl2 and 0.17 mM KCl) complemented with the inhibitor in the indicated concentrations.578 PCT
In order to test the cytoxicity of neurelaxin-A in a live animal model, zebrafish embryos were treated with the inhibitor at different concentrations and their development was followed for 72 hours (FIG. 4d).

Data set [5] deals with neurons. Put plainly: Oxidative stress resistance (H2O2) of neurons. Type of data set: cell-based. The following applies: 30 μM H2O2. The procedure:
Hydrogen Peroxide (H2O2) is used for generating reactive oxygen species and consequently, leading to oxidative stress and neuronal loss.
In this experiment, the neurons were first incubated with 30 μM of H2O2 or not (witness sample). Then, the neurons were treated with DMSO solutions with or without Neurelaxin-A.

The subject of data set [6] is cannabinoid-induced working memory loss. Description: Novel object recognition (NOR) test with CP55,940. Format: in vivo. Here is the method: In this experiment, a novel object recognition (NOR) test was performed.
In this test animals are presented to two objects and it will explore them for a while. After, one of the objects is changed for a new and different one. Under normal circumstances animals will be attracted to the novel object and will spend more time exploring it, by comparison to the older and already known object. Animals with memory deficit will explore both objects equally.
The synthetic cannabinoid CB1R agonist CP55,940 is administrated 1 hour prior to the familiarization step. Thirty minutes prior to the familiarization animals are either treated or not with neurelaxin-A.

Like-named read-outs stand apart in the source and are kept apart here.

T1 sequence (Q28641 1-843 limits assumed): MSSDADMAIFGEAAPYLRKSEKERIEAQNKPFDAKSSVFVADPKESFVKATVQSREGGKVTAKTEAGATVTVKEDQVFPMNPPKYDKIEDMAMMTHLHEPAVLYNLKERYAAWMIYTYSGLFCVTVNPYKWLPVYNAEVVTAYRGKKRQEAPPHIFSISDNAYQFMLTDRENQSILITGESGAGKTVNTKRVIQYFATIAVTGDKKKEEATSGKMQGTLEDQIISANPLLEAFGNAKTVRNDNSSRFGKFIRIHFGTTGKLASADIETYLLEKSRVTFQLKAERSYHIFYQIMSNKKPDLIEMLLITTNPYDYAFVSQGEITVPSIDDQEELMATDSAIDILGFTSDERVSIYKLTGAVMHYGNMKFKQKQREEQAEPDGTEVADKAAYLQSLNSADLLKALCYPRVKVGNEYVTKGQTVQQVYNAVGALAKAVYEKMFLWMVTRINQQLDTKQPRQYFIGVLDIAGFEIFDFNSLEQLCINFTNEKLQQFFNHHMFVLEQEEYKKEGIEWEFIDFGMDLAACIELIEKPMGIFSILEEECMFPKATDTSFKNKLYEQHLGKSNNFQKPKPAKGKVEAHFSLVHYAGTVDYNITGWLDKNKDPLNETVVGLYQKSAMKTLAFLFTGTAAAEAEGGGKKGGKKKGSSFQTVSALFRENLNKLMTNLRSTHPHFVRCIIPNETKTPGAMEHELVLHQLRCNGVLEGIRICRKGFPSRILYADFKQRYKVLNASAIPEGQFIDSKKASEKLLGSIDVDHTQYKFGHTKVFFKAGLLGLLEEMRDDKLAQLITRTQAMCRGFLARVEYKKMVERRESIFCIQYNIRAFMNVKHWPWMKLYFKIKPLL
T1 sequence (P02602 whole entry partner, the tested form may be a part): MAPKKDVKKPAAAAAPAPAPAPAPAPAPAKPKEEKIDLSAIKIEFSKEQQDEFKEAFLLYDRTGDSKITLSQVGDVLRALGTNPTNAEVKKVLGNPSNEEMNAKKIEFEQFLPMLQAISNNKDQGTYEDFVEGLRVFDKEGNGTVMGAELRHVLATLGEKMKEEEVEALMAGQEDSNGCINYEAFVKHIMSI

With `Cc1ccc2c(c1)C(=O)C1(O)CCN(c3ccc(N)cc3)C1=N2` (stereo not drawn) [Neurelaxin-A, 1-(4-aminophenyl)-3a-hydroxy-6-methyl-3,3a-dihydro-1H-pyrrolo[2,3-b]quinolin-4(2H)-one], the “maximal extent of inhibition, actin activated ATPase of SkS1” value in data set [1] (actin activated) is listed as 98-100%. The IC50 (commonly the concentration needed to halve the response being measured) in data set [1] (actin activated, 50 nM SkS1, 45 μM actin, 25° C., read-out: IC50 actin activated ATPase activity of SkS1) stood at 0.47 ± 0.06 µM; in data set [1] (basal, 500 nM SkS1, 25° C., read-out: IC50 basal ATPase of SkS1), 1.3 ± 0.1 µM. In data set [1] (basal), the “maximal extent of inhibition, basal ATPase of SkS1” value is 98-100%. Further, in data set [2] (2 μM), the “time of half inhibition of maximal angular velocity” value amounted to 3.2 h. For the same compound, the EC50 (in general, the concentration at which the effect is half-maximal) in data set [2] (Danio rerio, C-start, monitored for 4 hours, read-out: EC50 for the inhibition of the maximal angular velocity) is below 2 µM. The “amplitude of heart muscle contraction” value in data set [3] is reported as “dropped drastically”. In addition, in data set [4] (72 hours), the “visible damage in zebrafish embryos” value is given as “does not cause any visible damage”. Further, the “signs of cytotoxicity in zebrafish embryos” value in data set [4] (after 40 hours, even at high concentrations) is given as “did not show any signs of cytotoxicity”. In addition, the “neuronal survival and axon maintenance under oxidative stress” value in data set [5] is given as “increased”. In addition, the “NOR test: effect on memory without cannabinoid” value in data set [6] (animals non-treated with CP55,940) is “does not impact negatively the memory”. In addition, the “NOR test: memory after cannabinoid exposure” value in data set [6] (pre-treated animals, CP55,940 exposure) was “are not affected by the cannabinoid exposure”.
